Experimental data as given in the NIST ThermoML archive (doi:10.1016/j.fluid.2019.112263).

Key:
[1] = 101.33 kPa, Liquid, transient hot wire
[2] = wn = mass fraction of the nth substance listed; settings: 100 kPa, Liquid, transient hot wire

O [water]
[1]
Settings | thermal conductivity [W/m/K]
299.55 K | 0.613
309.44 K | 0.6207
319.56 K | 0.6399
339.38 K | 0.653
349.82 K | 0.6704

CCCCCCCCCC(=O)OC [methyl decanoate] + CCCO
[2]
Settings | thermal conductivity [W/m/K]
287.88 K, w1 = 0.2022 | 0.1527
287.9 K, w1 = 0.4008 | 0.1495
287.9 K, w1 = 0.5998 | 0.1481
287.98 K, w1 = 0.7993 | 0.1462
297.73 K, w1 = 0.2022 | 0.1501
297.73 K, w1 = 0.7993 | 0.1442
297.77 K, w1 = 0.4008 | 0.1473
297.95 K, w1 = 0.5998 | 0.1454
307.71 K, w1 = 0.2022 | 0.1479
307.75 K, w1 = 0.4008 | 0.1453
307.77 K, w1 = 0.7993 | 0.142
307.81 K, w1 = 0.5998 | 0.1435
317.64 K, w1 = 0.2022 | 0.1459
317.69 K, w1 = 0.4008 | 0.1426
317.74 K, w1 = 0.7993 | 0.1397
317.81 K, w1 = 0.5998 | 0.1414
327.55 K, w1 = 0.2022 | 0.1433
327.56 K, w1 = 0.5998 | 0.1394
327.59 K, w1 = 0.4008 | 0.1408
327.67 K, w1 = 0.7993 | 0.1374
337.58 K, w1 = 0.2022 | 0.1412
337.62 K, w1 = 0.5998 | 0.1371
337.68 K, w1 = 0.7993 | 0.1351
337.72 K, w1 = 0.4008 | 0.138
347.56 K, w1 = 0.2022 | 0.1382
347.64 K, w1 = 0.4008 | 0.136
347.65 K, w1 = 0.5998 | 0.1348
347.65 K, w1 = 0.7993 | 0.1328
357.48 K, w1 = 0.2022 | 0.1362
357.48 K, w1 = 0.7993 | 0.1299
357.51 K, w1 = 0.5998 | 0.1328
357.57 K, w1 = 0.4008 | 0.1341

CCO [ethanol]
[1]
Settings | thermal conductivity [W/m/K]
276.51 K | 0.1719
287.55 K | 0.1677
297.25 K | 0.1645
307.16 K | 0.1617
